ChEMBL document CHEMBL1201862, “PubChem BioAssay data set” (2004)
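Cells were grown in 96-well plates and exposed to each compound for 48 hours at five concentrations; endpoints were interpolated linearly between bracketing concentrations, or set to the highest concentration if not reached. The concentration for 50% growth inhibition is given as GI50.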 Active and inactive are the calls of the source. Rule as the data show it: active = GI50 up to about 1.1 µM and inactive = higher.

Assays:
Test in all cases: NCI-60 cell line screen, 48 h
SNB-75 = system: SNB-75
CAKI-1 = system: CAKI-1
OVCAR-8 = system: OVCAR-8
OVCAR-4 = system: OVCAR-4
UACC-62 = system: UACC-62
HOP-92 = system: HOP-92
HL-60 = system: HL-60
CCRF-CEM = system: CCRF-CEM
TK-10 = system: TK-10
SK-MEL-28 = system: SK-MEL-28
Malme-3M = system: Malme-3M
HT-29 = system: HT-29
NCI-H226 = system: NCI-H226
NCI-H460 = system: NCI-H460
COLO 205 = system: COLO 205
U-251 = system: U-251
MDA-MB-435 = system: MDA-MB-435
KM12 = system: KM12
EKVX = system: EKVX
OVCAR-5 = system: OVCAR-5
UACC-257 = system: UACC-257
SN12C = system: SN12C
T47D = system: T47D
786-0 = system: 786-0
SF-295 = system: SF-295
NCI-H522 = system: NCI-H522
SF-539 = system: SF-539
MCF7 = system: MCF7
MDA-MB-231 = system: MDA-MB-231
RPMI-8226 = system: RPMI-8226
HCT-116 = system: HCT-116
NCI-H23 = system: NCI-H23
K562 = system: K562
UO-31 = system: UO-31
PC-3 = system: PC-3
Hs-578T = system: Hs-578T
RXF 393 = system: RXF 393
OVCAR-3 = system: OVCAR-3
DU-145 = system: DU-145
NCI/ADR-RES = system: NCI/ADR-RES
MDA-N = system: MDA-N
SK-MEL-5 = system: SK-MEL-5
LOX IMVI = system: LOX IMVI
SK-OV-3 = system: SK-OV-3
IGROV-1 = system: IGROV-1
A549 = system: A549
SW-620 = system: SW-620
SNB-19 = system: SNB-19
ACHN = system: ACHN
SF-268 = system: SF-268
SK-MEL-2 = system: SK-MEL-2
A498 = system: A498
M14 = system: M14
HOP-62 = system: HOP-62
MOLT-4 = system: MOLT-4
HCC 2998 = system: HCC 2998
HCT-15 = system: HCT-15
SR = system: SR

COC(=O)C(CSSC[C@H](N/C(C)=C/C(C)=O)C(=O)OC)N/C(C)=C/C(C)=O (stereo not given in full)
GI50 (SNB-75): 71.4 µM (inactive)
GI50 (CAKI-1): 17.3 µM (inactive)
GI50 (OVCAR-8): < 0.01 µM (active)
GI50 (OVCAR-4): > 100 µM (inactive)
GI50 (UACC-62): 64.4 µM (inactive)
GI50 (HOP-92): 32.5 µM (inactive)
GI50 (HL-60): 30.2 µM (inactive)
GI50 (CCRF-CEM): 26.4 µM (inactive)
GI50 (TK-10): 2.66 µM (inactive)
GI50 (SK-MEL-28): > 100 µM (inactive)
GI50 (Malme-3M): 14.4 µM (inactive)
GI50 (HT-29): 38.7 µM (inactive)
GI50 (NCI-H226): > 100 µM (inactive)
GI50 (NCI-H460): > 100 µM (inactive)
GI50 (COLO 205): > 100 µM (inactive)
GI50 (U-251): 33.3 µM (inactive)
GI50 (MDA-MB-435): 74.5 µM (inactive)
GI50 (KM12): 28.8 µM (inactive)
GI50 (EKVX): 16.4 µM (inactive)
GI50 (OVCAR-5): 18.7 µM (inactive)
GI50 (UACC-257): 32.7 µM (inactive)
GI50 (SN12C): 48.8 µM (inactive)
GI50 (T47D): 16.6 µM (inactive)
GI50 (786-0): 32.2 µM (inactive)
GI50 (SF-295): 35.2 µM (inactive)
GI50 (NCI-H522): 13.9 µM (inactive)
GI50 (SF-539): 53 µM (inactive)
GI50 (MCF7): 26.9 µM (inactive)
GI50 (MDA-MB-231): > 100 µM (inactive)
GI50 (RPMI-8226): 21.3 µM (inactive)
GI50 (HCT-116): 27 µM (inactive)
GI50 (NCI-H23): > 100 µM (inactive)
GI50 (K562): 33.3 µM (inactive)
GI50 (UO-31): 47.5 µM (inactive)
GI50 (PC-3): 54.1 µM (inactive)
GI50 (Hs-578T): 21.6 µM (inactive)
GI50 (RXF 393): 15.1 µM (inactive)
GI50 (OVCAR-3): 4.17 µM (inactive)
GI50 (DU-145): 25.7 µM (inactive)
GI50 (NCI/ADR-RES): > 100 µM (inactive)
GI50 (MDA-N): 52.8 µM (inactive)
GI50 (SK-MEL-5): 67.3 µM (inactive)
GI50 (LOX IMVI): 14 µM (inactive)
GI50 (SK-OV-3): > 100 µM (inactive)
GI50 (IGROV-1): 36.7 µM (inactive)
GI50 (A549): 99.8 µM (inactive)
GI50 (SW-620): 34.1 µM (inactive)
GI50 (SNB-19): > 100 µM (inactive)
GI50 (ACHN): < 0.01 µM (active)
GI50 (SF-268): 42.2 µM (inactive)
GI50 (SK-MEL-2): > 100 µM (inactive)
GI50 (A498): > 100 µM (inactive)
GI50 (M14): 30.8 µM (inactive)
GI50 (HOP-62): 57.9 µM (inactive)
GI50 (MOLT-4): 32.3 µM (inactive)

C=CC1(c2ccc3ccccc3c2)OCC(CC)O1 (stereo not given)
GI50 (SNB-75): 30 µM (inactive)
GI50 (OVCAR-8): > 100 µM (inactive)
GI50 (OVCAR-4): 55.6 µM (inactive)
GI50 (UACC-62): 13.6 µM (inactive)
GI50 (HOP-92): 36.7 µM (inactive)
GI50 (HL-60): 4.37 µM (inactive)
GI50 (HCC 2998): 94.2 µM (inactive)
GI50 (CCRF-CEM): 29.6 µM (inactive)
GI50 (TK-10): > 100 µM (inactive)
GI50 (SK-MEL-28): > 100 µM (inactive)
GI50 (HCT-15): 45.6 µM
GI50 (Malme-3M): 30.5 µM (inactive)
GI50 (HT-29): 29.6 µM (inactive)
GI50 (NCI-H226): 25.5 µM (inactive)
GI50 (NCI-H460): 48.2 µM (inactive)
GI50 (COLO 205): 36.1 µM (inactive)
GI50 (U-251): 57 µM (inactive)
GI50 (MDA-MB-435): 63.4 µM (inactive)
GI50 (KM12): 44.1 µM (inactive)
GI50 (EKVX): 25.1 µM (inactive)
GI50 (OVCAR-5): 48.9 µM (inactive)
GI50 (UACC-257): 60.4 µM (inactive)
GI50 (SN12C): 36.7 µM (inactive)
GI50 (SR): 19.8 µM (inactive)
GI50 (T47D): 35 µM (inactive)
GI50 (786-0): 85.9 µM (inactive)
GI50 (SF-295): 61.5 µM (inactive)
GI50 (NCI-H522): 40.6 µM (inactive)
GI50 (MCF7): 55 µM (inactive)
GI50 (MDA-MB-231): 0.207 µM (active)
GI50 (RPMI-8226): 46.3 µM (inactive)
GI50 (HCT-116): 40.9 µM (inactive)
GI50 (NCI-H23): 32.3 µM (inactive)
GI50 (K562): 13.9 µM (inactive)
GI50 (UO-31): 63.5 µM (inactive)
GI50 (PC-3): 28 µM (inactive)
GI50 (Hs-578T): 22.4 µM (inactive)
GI50 (RXF 393): 53.8 µM (inactive)
GI50 (OVCAR-3): 47 µM (inactive)
GI50 (DU-145): > 100 µM (inactive)
GI50 (NCI/ADR-RES): > 100 µM (inactive)
GI50 (MDA-N): 24.8 µM (inactive)
GI50 (SK-MEL-5): 47 µM (inactive)
GI50 (LOX IMVI): 21.8 µM (inactive)
GI50 (SK-OV-3): > 100 µM (inactive)
GI50 (IGROV-1): 33.9 µM (inactive)
GI50 (A549): 47.9 µM (inactive)
GI50 (SW-620): 46.2 µM (inactive)
GI50 (SNB-19): 94 µM (inactive)
GI50 (ACHN): 66.1 µM (inactive)
GI50 (SF-268): 71.6 µM (inactive)
GI50 (SK-MEL-2): 15.6 µM (inactive)
GI50 (M14): 61.1 µM (inactive)
GI50 (HOP-62): 1.21 µM (inactive)
GI50 (MOLT-4): 25.6 µM (inactive)
